The record followed here is patent USRE34918E, “Azaazulene compounds which are useful as antiallergic and antiinflammatory agents” (Kaken Pharmaceutical Co., Ltd., priority 1988, dated 1995).

Each structure is given as a SMILES string. Several values for one entry are separate records, joined by “and”; a condition that tells them apart may be missing. Equal values may be shown once.

Test [1] concerns PCA (homologous passive cutaneous anaphylaxis) in rat. The test is described as follows: Inhibitory activity against PCA in rat. The settings on record: Rattus norvegicus; 5 mg/kg oral, 1 hour before antigen challenge; read-out: Inhibition rate against PCA. It counts as in vivo, rat (male Slc: Wistar). The procedure:
An anti-dinitrophenylated-ovalbumin (hereinafter referred to as "anti-DNP-OVA") rat antiserum having 800 of PCA titer in homologous passive cutaneous anaphylaxis reaction in rats for 48 hours, was diluted 200 times with physiological saline, and diluted antiserum was injected intradermally into back of groups of 5 male Slc: Wistar rats weighing 130-150 g in a volume of 50 μl/site to be passively sensitized. After 48 hours, 0.6 ml of 1% (w/v) Evans blue solution containing 1.5 mg of antigen DNP-OVA was administered intravenously into the tail. Thirty minutes later, the rats were bled to death and skin of the rats was removed. According to the method of Katayama et al [Microbiol. […] The test compound was suspended in 0.5% (w/v) aqueous solution of carboxymethylcellulose (hereinafter referred to as "CMC"), the suspension was administered orally in a ratio of 5 mg/kg 1 hour before challenging an antigen.
Inhibition rate against PCA was calculated according to the following equation. [formula] M: Amount of leaked pigment in antibody-sensitized site under administration of CMC without the test compound
S: Amount of leaked pigment in antibody-sensitized site under administration of the test compound in CMC
B: Amount of leaked pigment in antibody-nonsensitized site

Test [2] concerns carrageenin edema in a foot-pad of rat. The test is described as follows: Effect on carrageenin edema in a foot-pad of rat. It counts as in vivo, rat (male Wister). The conditions noted are these: 50 mg/kg p.o., 4 hours after carrageenin. The procedure: The test was carried out according to the modified method on a method of Winter et al [Proc. Soc. Exp. Biol Med., 111, 544-547 (1962)]. Five male Wister rats weighing 148 to 162 g which were subjected to fasting for 24 hours were used as one group.
The test compound was suspended in 0.5% aqueous solution of CMC, and the suspension was administered orally in a amount of 50 mg/kg. After 60 minutes, 0.1 ml of 1% carrageenin solution in physiological saline was injected subcutaneously into the foot-pad of the left hind foot. Four hours after the injection of carrageenin, the volume of the foot-pad was measured by the apparatus for measurement of foot-pad volume in rat (commercially available from Ugobasile).
Swelling volume was calculated from the difference between a volume of foot-pad before inflaming the foot-pad, i.e. normal volume and that after inflaming it. Effect of a test compound was expressed as inhibition rate against swelling by calculating percentage in comparison with the 0.5% CMC administration group.
Indomethacin (commercially available from Merck Co.) was used as a positive comparative drug.
A general note: The carrageenan paw model is a standard test of acute inflammation.

For test [3], the system named is histamine release from rat mast cell. Briefly: Inhibitory activity against histamine release from rat mast cell. It is filed as cell-based. The settings on record: 10 μg/ml, read-out: Inhibitory rate against histamine release.
For a further test, the target named is T1, 5-lipoxygenase (Cavia porcellus, UniProt A0A286X958).
T1 construct: 5-lipoxygenase was prepared with polymorphonuclear leukocyte obtained from peritoneal cavity; endogenous in cells; host or cells: guinea pig peritoneal polymorphonuclear leukocytes (casein-elicited)
T1 sequence (A0A286X958 1-674): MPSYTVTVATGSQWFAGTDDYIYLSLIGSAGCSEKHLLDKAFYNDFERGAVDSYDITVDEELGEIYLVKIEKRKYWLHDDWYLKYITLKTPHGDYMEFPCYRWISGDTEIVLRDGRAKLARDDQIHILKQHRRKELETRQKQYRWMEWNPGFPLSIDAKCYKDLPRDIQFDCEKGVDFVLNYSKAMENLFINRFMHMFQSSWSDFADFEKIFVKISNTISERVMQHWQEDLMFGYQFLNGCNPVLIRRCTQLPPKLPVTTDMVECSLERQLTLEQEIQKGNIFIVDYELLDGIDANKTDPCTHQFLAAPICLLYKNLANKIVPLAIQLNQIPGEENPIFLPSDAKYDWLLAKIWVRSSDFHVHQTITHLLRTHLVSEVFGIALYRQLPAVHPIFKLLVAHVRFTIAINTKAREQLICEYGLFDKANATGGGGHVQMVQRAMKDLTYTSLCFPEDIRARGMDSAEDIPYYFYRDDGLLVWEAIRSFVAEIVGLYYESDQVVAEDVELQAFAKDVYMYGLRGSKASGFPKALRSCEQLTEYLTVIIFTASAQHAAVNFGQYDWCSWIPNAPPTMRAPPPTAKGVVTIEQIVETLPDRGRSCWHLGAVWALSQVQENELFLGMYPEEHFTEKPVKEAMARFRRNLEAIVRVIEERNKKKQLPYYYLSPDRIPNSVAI
Briefly: 5-lipoxygenase inhibiting activity in guinea pig. It counts as biochemical. The conditions noted are these: read-out: Inhibition rate against 5-lipoxygenase activity. The procedure:
The test was carried out according to the method of Ochi [cf. J. Biol. Chem., 258, 5754-5758 (1983)]. Two % casein solution in saline was injected intraperitoneally into guinea pigs in an amount of 1/10 of body weight. After 16 hours, 5-lipoxygenase was prepared with polymorphonuclear leukocyte obtained from peritoneal cavity. Test compound and 5-lipoxygenase were pre-incubated at 30° C. for 10 minutes, CaCl2 (calcium chloride) and ^14 C-arachidonic acid were added thereto, and the resulting mixture was incubated for 20 minutes. A mixture of ethyl acetate/methanol/0.2M citric acid=30/4/1 (by volume) was added thereto to stop the reaction. After centrifugation, the organic solvent layer was spotted on a plate for thin layer chromatography and developed. Effect of the test compound was determined from the amount of ^14 C-5-hydroxyeicosatetraenoic acid (hereinafter referred to as "5-HETE") formed from ^14 C-arachidonic acid. Radioactivity of 5-HETE position was measured with a liquid scintillation counter.
Inhibition rate against 5-lipoxygenase activity was calculated according to the following equation.
Inhibition rate against 5-lipoxygenase activity [formula] A: Value of radioactivity in the control group B: Value of radioactivity in the test compound group
Each test compound was used in a concentration of 10 μM.

Turning to `CC(C)c1cccc2n(Cc3ccc(F)cc3)c(=O)c(-c3nnn[nH]3)c-2c1` [Example 9, 1-(4-Fluorobenzyl)-5-iso-propyl-3-(5-tetrazolyl)-1-azaazulane-2-one], the inhibition in vivo at 5 mg/kg in test [1] was found to be 84.9 ± 2.2%. Further, the “Swelling volume 4 hours after inflaming, mean ± standard error” value in test [2] was 0.55 mL and 0.55 ± 0.032 mL. Besides, the “Inhibition rate against swelling” value in test [2] (vs 0.5% CMC group) stood at 38.9%. The inhibition at 10 µg/mL in test [3] came to 99.8%. Further, the inhibition at 10 µM at 5-lipoxygenase is -5.4%.
